This note sets out measurements from patent US8044211B2 (Chroma Therapeutics Ltd., priority 2006, dated 2011).

Each structure is given as a SMILES string.

In the assay the target is T1, p38 MAP Kinase a (Homo sapiens, UniProt Q16539).
T1 construct: purchased Upstate (Dundee UK)
T1 sequence (Q16539 whole entry): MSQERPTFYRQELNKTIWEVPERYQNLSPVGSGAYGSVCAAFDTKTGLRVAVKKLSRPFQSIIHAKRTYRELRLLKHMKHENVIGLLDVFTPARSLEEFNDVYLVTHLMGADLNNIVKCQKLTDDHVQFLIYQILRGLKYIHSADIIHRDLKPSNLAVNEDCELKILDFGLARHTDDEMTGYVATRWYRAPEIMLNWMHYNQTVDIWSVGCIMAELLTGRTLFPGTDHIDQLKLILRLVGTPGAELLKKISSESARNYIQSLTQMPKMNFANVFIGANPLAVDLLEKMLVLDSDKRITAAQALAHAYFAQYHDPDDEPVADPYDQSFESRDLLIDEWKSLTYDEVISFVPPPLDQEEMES
In words: p38 MAP Kinase activity, radiometric filter-binding assay (Upstate). It counts as biochemical. As to conditions: IC50 range; ATP at or close to Km; read-out: Inhibitor activity versus p38 MAPKa. The procedure:
The ability of compounds to inhibit p38 MAP a Kinase activity was measured in an assay performed by Upstate (Dundee UK). In a final reaction volume of 25 μL, p38 MAP Kinase a (5-10 mU) is incubated with 25 mM Tris pH 7.5, 0.002 mMEGTA, 0.33 mg/mL myelin basic protein, 10 mM MgAcetate and [g-33P-ATP] (specific activity approx. 500 cpm/pmol, concentration as required). The reaction is initiated by the addition of the MgATP mix. After incubation for 40 minutes at room temperature, the reaction is stopped by the addition of 5 μL of a 3% phosphoric acid solution. 10 μL of the reaction is then spotted onto a P30 filtermat and washed three times for 5 minutes in 75 mM phosphoric acid and once in methanol prior to drying and scintillation counting.
Duplicate data points are generated from a ⅓ log dilution series of a stock solution in DMSO. Nine dilutions steps are made from a top concentration of 10 μM, and a ‘no compound’ blank is included. The standard radiometric filter-binding assay is performed at an ATP concentration at, or close to, the Km. Data from scintillation counts are collected and subjected to free-fit analysis by Prism software. From the curve generated, the concentration giving 50% inhibition is determined and reported.
As to `Nc1c(C(=O)c2ccc(F)cc2F)ccc(=O)n1-c1ccc(CN[C@H](C(=O)O)c2ccccc2)cc1` [Example 72, (S)-{4-[6-Amino-5-(2,4-difluorobenzoyl)-2-oxo-2H-pyridin-1-yl]benzylamino}phenylacetic acid], the IC50 is < 100 nM.
Consider `Nc1c(C(=O)c2ccc(F)cc2F)ccc(=O)n1-c1ccc(CN[C@@H](Cc2ccccc2)C(=O)O)cc1` [Example 73, (S)-2-{4-[6-Amino-5-(2,4-difluorobenzoyl)-2-oxo-2H-pyridin-1-yl]benzylamino}-3-phenylpropionic acid], for which the IC50 was < 100 nM.
As for `CC(C)C[C@H](NCc1ccc(-n2c(N)c(C(=O)c3ccc(F)cc3F)ccc2=O)cc1)C(=O)O` [Example 74, (S)-2-{4-[6-Amino-5-(2,4-difluorobenzoyl)-2-oxo-2H-pyridin-1-yl]benzylamino}-4-methylpentanoic acid], the IC50 is < 100 nM.
On to `Nc1c(C(=O)c2ccc(F)cc2)ccc(=O)n1-c1ccc(CN[C@H](C(=O)O)c2ccccc2)cc1` [Example 75, (S)-{4-[6-Amino-5-(4-fluorobenzoyl)-2-oxo-2H-pyridin-1-yl]benzylamino}phenylacetic acid], for which the IC50 was in the range of 100 to 1000 nM.
On to `Cc1cc(C(=O)c2ccc(=O)n(-c3ccc(CN[C@H](C(=O)O)c4ccccc4)cc3)c2N)ccc1F` [Example 76, (S)-{4-[6-Amino-5-(3-methyl-4-fluorobenzoyl)-2-oxo-2H-pyridin-1-yl]benzylamino}phenylacetic acid], for which the IC50 lay in the range of 100 to 1000 nM.
Turning to `Nc1c(C(=O)c2ccc(F)cc2)ccc(=O)n1-c1ccc(CN[C@@H](Cc2ccccc2)C(=O)O)cc1` [Example 78, (S)-2-{4-[6-Amino-5-(4-fluorobenzoyl)-2-oxo-2H-pyridin-1-yl]benzylamino}-3-phenylpropionic acid], the IC50 lay within 100 to 1000 nM.
On to `CC(C)C[C@H](NCc1ccc(-n2c(N)c(C(=O)c3ccc(F)cc3)ccc2=O)cc1)C(=O)O` [Example 79, (S)-2-{4-[6-Amino-5-(4-fluorobenzoyl)-2-oxo-2H-pyridin-1-yl]benzylamino}-4-methylpentanoic acid], for which the IC50 lay in the range of 100 to 1000 nM.
Next, `Cc1cc(C(=O)c2ccc(=O)n(-c3ccc(CN[C@@H](Cc4ccccc4)C(=O)O)cc3)c2N)ccc1F` [Example 80, (S)-2-{4-[6-Amino-5-(3-methyl-4-fluorobenzoyl)-2-oxo-2H-pyridin-1-yl]benzylamino}-3-phenylpropionic acid]: < 100 nM; `Cc1cc(C(=O)c2ccc(=O)n(-c3ccc(CN[C@@H](CC(C)C)C(=O)O)cc3)c2N)ccc1F` [Example 81, (S)-2-{4-[6-Amino-5-(3-Methyl-4-fluorobenzoyl)-2-oxo-2H-pyridin-1-yl]benzylamino}-4-methylpentanoic acid]: 100 to 1000 nM.
As to `Nc1c(C(=O)c2ccc(F)cc2)ccc(=O)n1-c1ccc(OCCCN[C@@H](Cc2ccccc2)C(=O)O)cc1` [Example 82], the IC50 was < 100 nM.
Next, `Cc1cc(C(=O)c2ccc(=O)n(-c3ccc(OCCCN[C@@H](Cc4ccccc4)C(=O)O)cc3)c2N)ccc1F` [Example 83, (S)-2-(3-{4-[6-Amino-5-(3-methyl-4-fluorobenzoyl)-2-oxo-2H-pyridin-1-yl]phenoxy}propylamino)-3-phenyl propionic acid]: < 100 nM.
The figure for `Nc1c(C(=O)c2ccc(F)cc2F)ccc(=O)n1-c1ccc(OCCCN[C@H](C(=O)O)c2ccccc2)cc1` [Example 84, (S)-(3-{4-[6-Amino-5-(2,4-difluorobenzoyl)-2-oxo-2H-pyridin-1-yl]-phenoxy}propylamino)phenyl acetic acid] is < 100 nM; for `CC(C)C[C@H](NCCCOc1ccc(-n2c(N)c(C(=O)c3ccc(F)cc3)ccc2=O)cc1)C(=O)O` [Example 85, (S)-2-(3-{4-[6-Amino-5-(4-fluorobenzoyl)-2-oxo-2H-pyridin-1-yl]phenoxy}propylamino)-4-methylpentanoic acid] it is < 100 nM; for `Nc1c(C(=O)c2ccc(F)cc2F)ccc(=O)n1-c1ccc(OCCCN[C@@H](Cc2ccccc2)C(=O)O)cc1` [Example 86, (S)-2-(3-{4-[6-Amino-5-(2,4-difluorobenzoyl)-2-oxo-2H-pyridin-1-yl]phenoxy}propylamino)-3-phenyl propionic acid] it is > 1000 nM.
Regarding `Cc1cc(C(=O)c2ccc(=O)n(-c3ccc(OCCCN[C@H](C(=O)O)c4ccccc4)cc3)c2N)ccc1F` [Example 87], the IC50 fell in the range of 100 to 1000 nM.
Regarding `Cc1cc(C(=O)c2ccc(=O)n(-c3ccc(OCCCN[C@@H](CC(C)C)C(=O)O)cc3)c2N)ccc1F` [Example 88, (S)-2-(3-{4-[6-Amino-5-(4-fluoro-3-methylbenzoyl)-2-oxo-2H-pyridin-1-yl]phenoxy}propylamino)-4-methylpentanoic acid], the IC50 was < 100 nM.
For the compound `Nc1c(C(=O)c2ccc(F)cc2)ccc(=O)n1-c1c(F)cc(OCCCN[C@H](C(=O)O)c2ccccc2)cc1F` [Example 89], the IC50 was < 100 nM.
As for `Nc1c(C(=O)c2ccc(F)cc2)ccc(=O)n1-c1c(F)cc(OCCCN[C@@H](Cc2ccccc2)C(=O)O)cc1F` [Example 90], the IC50 is < 100 nM.
Take `CC(C)C[C@H](NCCCOc1cc(F)c(-n2c(N)c(C(=O)c3ccc(F)cc3)ccc2=O)c(F)c1)C(=O)O` [Example 91]: the IC50 is < 100 nM.
Turning to `Nc1c(C(=O)c2ccc(F)cc2)ccc(=O)n1-c1c(F)cc(CN[C@@H](Cc2ccccc2)C(=O)O)cc1F` [Example 92], the IC50 was < 100 nM.
With `Cc1cc(C(=O)c2ccc(=O)n(-c3c(F)cc(OCCCN[C@@H](Cc4ccccc4)C(=O)O)cc3F)c2N)ccc1F` [Example 93, (S)-2-(3-{4-[6-Amino-5-(4-fluoro-3-methylbenzoyl)-2-oxo-2H-pyridin-1-yl]-3,5-difluorophenoxy}propylamino)-3-phenylpropionic acid], the IC50 was < 100 nM.
Take `Nc1c(C(=O)c2ccc(F)cc2)ccc(=O)n1-c1ccc(OCCCN[C@H](C(=O)O)c2ccccc2)cc1` [Example 94, (S)-(3-{4-[6-Amino-5-(4-fluorobenzoyl)-2-oxo-2H-pyridin-1-yl]-Phenoxy}propylamino)phenylacetic acid]: the IC50 is < 100 nM.
On to `Nc1c(C(=O)c2ccc(F)cc2F)ccc(=O)n1-c1c(F)cc(OCCCN[C@H](C(=O)O)c2ccccc2)cc1F` [Example 95, (S)-(3-{4-[6-Amino-5-(2,4-difluorobenzoyl)-2-oxo-2H-pyridin-1-yl]-3,5-difluorophenoxy}propylamino)phenyl acetic acid], for which the IC50 is < 100 nM.
The figure for `CC(C)C[C@H](NCCCOc1ccc(-n2c(N)c(C(=O)c3ccc(F)cc3F)ccc2=O)cc1)C(=O)O` [Example 96, (S)-2-(3-{4-[6-Amino-5-(2,4-difluorobenzoyl)-2-oxo-2H-pyridin-1-yl]phenoxy}propylamino)-4-methyl pentanoic acid] is < 100 nM; for `CC(C)C[C@H](NCCCOc1cc(F)c(-n2c(N)c(C(=O)c3ccc(F)cc3F)ccc2=O)c(F)c1)C(=O)O` [Example 97, (S)-2-(3-{4-[6-Amino-5-(2,4-difluorobenzoyl)-2-oxo-2H-pyridin-1-yl]-3,5-difluorophenoxy}propylamino)-4-methyl pentanoic acid] it is < 100 nM; for `Cc1cc(C(=O)c2ccc(=O)n(-c3c(F)cc(OCCCN[C@@H](CC(C)C)C(=O)O)cc3F)c2N)ccc1F` [Example 98, (S)-2-(3-{4-[6-Amino-5-(4-fluoro-3-methylbenzoyl)-2-oxo-2H-pyridin-1-yl]-3,5-difluorophenoxy}propylamino)-4-methylpentanoic acid] it is < 100 nM.
Consider `Cc1cc(C(=O)c2ccc(=O)n(-c3c(F)cc(OCCCN[C@H](C(=O)O)c4ccccc4)cc3F)c2N)ccc1F` [Example 99, (S)-(3-{4-[6-Amino-5-(4-fluoro-3-methylbenzoyl)-2-oxo-2H-pyridin-1-yl]-3,5-difluorophenoxy}propylamino)phenylacetic acid], for which the IC50 is < 100 nM.
Take `Nc1c(C(=O)c2ccc(F)cc2F)ccc(=O)n1-c1c(F)cc(OCCCN[C@@H](Cc2ccccc2)C(=O)O)cc1F` [Example 100, (S)-2-(3-{4-[6-Amino-5-(2,4-difluorobenzoyl)-2-oxo-2H-pyridin-1-yl]-3,5-difluorophenoxy}-propylamino)-3-phenyl propionic acid]: the IC50 was < 100 nM.
For `CC(C)C[C@H](NCc1cc(F)c(-n2c(N)c(C(=O)c3ccc(F)cc3F)ccc2=O)c(F)c1)C(=O)O` [Example 101], the IC50 is < 100 nM.
`Nc1c(C(=O)c2ccc(F)cc2)ccc(=O)n1-c1c(F)cc(OC2CCC(N[C@@H](Cc3ccccc3)C(=O)O)CC2)cc1F` (some centres unmarked) [Example 102]: the IC50 is < 100 nM.
Next, `Nc1c(C(=O)c2ccc(F)cc2)ccc(=O)n1-c1c(F)cc(OC2CCC(N[C@H](C(=O)O)c3ccccc3)CC2)cc1F` (stereo partly drawn) [Example 103, (2S)-[(4-{4-[6-amino-5-(4-fluorobenzoyl)-2-oxopyridin-1(2H)-yl]-3,5-difluorophenoxy}cyclohexyl)amino](phenyl)acetic acid]: < 100 nM; `CC(C)C[C@H](NC1CCC(Oc2cc(F)c(-n3c(N)c(C(=O)c4ccc(F)cc4)ccc3=O)c(F)c2)CC1)C(=O)O` (stereo partly drawn) [Example 104, N-(4-{4-[6-amino-5-(4-fluorobenzoyl)-2-oxopyridin-1(2H)-yl]-3,5-difluorophenoxy}cyclohexyl)-L-leucine]: < 100 nM.
